Converted amounts (≈) assume the structure as drawn. Where two headings read alike, the source gives them in different places.
Legend:
[1] = tested on: lung epithelial monolayers; settings: cited from earlier work
[2] = pH-dependent thermodynamic solubility, miniaturized shake-flask method, UPLC-PDA; settings: for solubility thermodynamic at 24 h: 24 °C, thermodynamic from solid
Calu-3 monolayer [3] = tested on: Calu-3 monolayer
Calu-3 cells = experiment: Calu-3 cell uptake, FIA-TOFMS; type: in vitro ADME, human; settings: 50 µg/mL; for Concentration [pg/µL] 1 in cell extract / Normalized concentration [pg/cell] 1: replicate 1; for Concentration [pg/µL] 2 in cell extract / Normalized concentration [pg/cell] 2: replicate 2; for Concentration [pg/µL] 3 in cell extract / Normalized concentration [pg/cell] 3: replicate 3
Experimental: At 4, 12, and 24 h after addition, cell extracts were generated in triplicates. To that end, the medium was aspirated from the respective wells, and cells were washed with pre-warmed ammonium carbonate solution (75 mM, pH 7.4, 37 °C). Immediately after removal of the wash solvent, 300 μL cold extraction solvent (40:40:20 acetonitrile:methanol:water, −20 °C) was added per well to lyse cells in situ and stop the enzymatic activity. The bottom of each well was subsequently scraped and the cell extracts were transferred to 96-well storage plates and stored at −80 °C until analysis. […] Quantification of SGC and SGD was performed using flow-injection time-of-flight mass spectrometry (FIA-TOFMS) in negative ion mode as described previously ([Fuhrer et al., 2011]). SGC and SGD signals were identified by matching accurate masses (for both [M-H]- at 707.2127 m/z). To account for possible influences of the complex matrix in the cell extract samples, a matrix-matched series of calibration samples were prepared, in which increasing concentrations of SGC were spiked into extracts of cells that had not previously been treated with either SGC or SGD. The calibration samples were injected alongside the cell extract samples and used to establish a calibration function using linear regression. The ion intensities measured were converted into SGC and SGD concentrations and normalized by the cell number in each sample, which was determined at each time point in separate cell cultures using trypan blue staining and cell counting in a Thermo Fisher Countess II Automated cell counter after trypsin-mediated cell detachment. This procedure eventually yielded estimates of SGC and SGD contents in pg/cell.

[4] = UV-metric pKa measurement (SiriusT3); type: physicochemical; settings: experimental, SiriusT3, 25 °C, mean ± S.D.
Experimental: Experimental pKa (−log10 of the acid dissociation equilibrium constant) values of SGC and SGD were evaluated using the UV-metric pKa measurement method of the SiriusT3 automated titrator instrument and the corresponding software SiriusT3Control and SiriusT3Refine (Pion Inc., Billerica, USA). The SiriusT3 apparatus uses a deuterium lamp to determine the UV/Vis absorbance spectrum of the test solutions at each pH point. The standard aqueous UV-metric pKa measurement protocol was conducted according to manufacturer instructions. […] This was mixed with 25 μL phosphate buffer (14.7 mM K2HPO4 and 0.15 M KCl in MilliQ water) and diluted with 1.5 mL ionic strength-adjusted water (ISA water ≡ 0.15 M KCl in MilliQ water). The subsequent acid/base titration and measurement of UV absorbance was automatically performed by the SiriusT3 at 25.0 ± 0.5 °C. […] Turbidity was monitored by a turbidity sensor to ensure the absence of precipitation of the test compounds during the experiment, since accurate pKa measurements are limited to fully dissolved substances. In case turbidity occurred, individual titrations were not used for further analysis, resulting in a total of 11 analysable titrations across the 5 replicate samples for both SGC and SGD.

Calu-3 monolayer [5] = tested on: Calu-3 monolayer; remark: listed apart in the source
[6] = potentiometric logP, water-octanol (SiriusT3); type: physicochemical; settings: octanol/water, experimental, mean ± S.D., n = 3, read-out: logP
Experimental: LogP (partition coefficient) evaluation was performed via SiriusT3. The potentiometric logP measurement relies on assessing the partition profile of the test substance within a two-phase water-octanol solvent system. Changes in the relative volume ratio of octanol to water lead to shifts in the apparent pKa, resulting from the partitioning between non-ionised and ionised forms. LogP values were then estimated based on these assessments.

[7] = Calu-3 cell viability, MTT assay; settings: human
SARS-CoV-2 = tested on: SARS-CoV-2; design: method as in Wasilewicz et al., 2023; settings: reported to be based on inhibition of the viral main protease, ref Wasilewicz et al., 2023; read-out: anti-SARS-CoV-2 activity IC50; cited from earlier work
Calu-3 monolayer [8] = tested on: Calu-3 monolayer; remark: listed apart in the source

For colistin, the Papp [1] is listed as 0.04 ± 0.02 × 10^−6 cm/s.

For `NC[C@H]1O[C@H](O[C@H]2[C@H](O)[C@@H](O[C@H]3O[C@H](CO)[C@@H](O)[C@H](N)[C@H]3O)[C@H](N)C[C@@H]2N)[C@H](N)C[C@@H]1O` [tobramycin], the Papp [1] is given as less than 5e-08 cm/s.

For `C[C@H]1[C@H](NC(=O)/C(=N\OC(C)(C)C(=O)O)c2csc(N)n2)C(=O)N1S(=O)(=O)O` [aztreonam], the Papp [1] is given as 0.07 ± 0.02 × 10^−6 cm/s.

In the case of `CC(C)=CC[C@]12Oc3cc(O)c([C@H]4C=C(C)C[C@H](c5ccc(O)cc5O)[C@H]4C(=O)c4ccc(O)cc4O)c(O)c3C(=O)[C@@]1(O)Oc1cc(O)ccc12` [SGC, sanggenon C], the solubility thermodynamic at 24 h ([2]; HCl buffer, pH 1.2, simulated gastric fluid) is reported as 0.00447 mg/mL (≈ 6.31 µM), the solubility thermodynamic at 24 h ([2]; acetate buffer, pH 4.5, aqueous buffer) is reported as 0.00853 mg/mL (≈ 12 µM) and the “pH 1.2 solubility” value ([2]; compound within extract MA21, pH 1.2) is reported as “< LOQ”. The “pH 4.5 solubility” value ([2]; compound within extract MA21, pH 4.5) was “< LOQ”, the “pH 6.8 solubility” value ([2]; compound within extract MA21, pH 6.8) was 4.05 µg/mL and the “pH 7.4 solubility” value ([2]; compound within extract MA21, pH 7.4) was 3.24 µg/mL. The “pH 1.2 solubility” value ([2]; compound within extract MA60, pH 1.2) was 6.88 µg/mL, the “pH 4.5 solubility” value ([2]; compound within extract MA60, pH 4.5) was “< LOQ” and the “pH 6.8 solubility” value ([2]; compound within extract MA60, pH 6.8) was 12.7 µg/mL. The “pH 7.4 solubility” value ([2]; compound within extract MA60, pH 7.4) was 13.6 µg/mL, the solubility thermodynamic at 24 h ([2]; phosphate buffer, pH 6.8, aqueous buffer) was 0.0185 mg/mL (≈ 26.1 µM) and the solubility thermodynamic at 24 h ([2]; phosphate buffer, pH 7.4, aqueous buffer) was 0.0471 mg/mL (≈ 66.5 µM). The “change in TEER during permeability study, B-A direction” value (Calu-3 monolayer [3]) was “a decrease in TEER values was also observed”, the “intracellular content, Mean [pg/cell]” value (Calu-3 cells; 4 h) was 2.0 ± 0.1 pg/cell and the “Concentration [pg/µL] 1 in cell extract” value (Calu-3 cells; 4 h) was 4284 pg/µL. The “Normalized concentration [pg/cell] 1” value (Calu-3 cells; 4 h) was 2.09 pg/cell, the “Concentration [pg/µL] 2 in cell extract” value (Calu-3 cells; 4 h) was 3851 pg/µL and the “Normalized concentration [pg/cell] 2” value (Calu-3 cells; 4 h) was 1.88 pg/cell. The “Concentration [pg/µL] 3 in cell extract” value (Calu-3 cells; 4 h) was 3902 pg/µL, the “Normalized concentration [pg/cell] 3” value (Calu-3 cells; 4 h) was 1.90 pg/cell and the “intracellular content, Mean [pg/cell]” value (Calu-3 cells; 4 h, listed as Sanggenon C) was 1.96 pg/cell. The “intracellular content, Mean [pg/cell]” value (Calu-3 cells; 12 h) was 5.54 pg/cell, the “Concentration [pg/µL] 1 in cell extract” value (Calu-3 cells; 12 h) was 13620 pg/µL and the “Normalized concentration [pg/cell] 1” value (Calu-3 cells; 12 h) was 5.77 pg/cell. For the same compound, the “Concentration [pg/µL] 2 in cell extract” value (Calu-3 cells; 12 h) was 13397 pg/µL, the “Normalized concentration [pg/cell] 2” value (Calu-3 cells; 12 h) was 5.67 pg/cell and the “Concentration [pg/µL] 3 in cell extract” value (Calu-3 cells; 12 h) was 12248 pg/µL. The “Normalized concentration [pg/cell] 3” value (Calu-3 cells; 12 h) was 5.19 pg/cell, the “intracellular content, Mean [pg/cell]” value (Calu-3 cells; 24 h) was 8.1 ± 0.3 pg/cell and the “Concentration [pg/µL] 1 in cell extract” value (Calu-3 cells; 24 h) was 17926 pg/µL. The “Normalized concentration [pg/cell] 1” value (Calu-3 cells; 24 h) was 8.34 pg/cell, the “Concentration [pg/µL] 2 in cell extract” value (Calu-3 cells; 24 h) was 16862 pg/µL and the “Normalized concentration [pg/cell] 2” value (Calu-3 cells; 24 h) was 7.85 pg/cell. The “Concentration [pg/µL] 3 in cell extract” value (Calu-3 cells; 24 h) was 17411 pg/µL, the “Normalized concentration [pg/cell] 3” value (Calu-3 cells; 24 h) was 8.11 pg/cell and the “intracellular content, Mean [pg/cell]” value (Calu-3 cells; 24 h, listed as Sanggenon C) was 8.10 pg/cell. It also gave a pKa ([4]; read-out: pKa 1) of 2.64 ± 0.69, a pKa ([4]; read-out: pKa 2) of 5.2 ± 0.8 and a pKa ([4]; read-out: pKa 3) of 6.74 ± 0.14. The pKa ([4]; read-out: pKa 4) was 7.97 ± 0.06, the pKa ([4]; read-out: pKa 5) was 9 ± 0.04 and the pKa ([4]; read-out: pKa 6) was 9.84 ± 0.05. The pKa ([4]; read-out: pKa 7) was 10.7 ± 0.02, the pKa ([4]; read-out: pKa 8) was 12.05 ± 0.07 and the “evidence for permeability of SGC or SGD” value (Calu-3 monolayer [5]) was “Neither by applying the isolated compounds nor the extracts MA60 and MA21, any evidence for the permeability of SGC or SGD was detectable”. For the same compound, the “permeability across intact Calu-3 monolayers” value (Calu-3 monolayer [5]) was “no measurable permeability”, the logP [6] was 3 to 3.5 and the CC50 at 24 h [7] was 47.8 mg/L (≈ 67.4 µM). For the same compound, the IC50 (SARS-CoV-2) was 7.2 µM.

With `O=C1OC2(c3ccc(O)cc3Oc3cc(O)ccc32)c2ccccc21` [fluorescein] the “fluorescein permeation across Calu-3 monolayer” value (Calu-3 monolayer [8]) was “no fluorescein permeation was detected”.

Source: publication PMC11381475, “Biopharmaceutical profiling of anti-infective sanggenons from Morus alba root bark for inhalation administration” (International Journal of Pharmaceutics: X, 2024)
